# In the OPERA property sets (Mansouri et al. 2018):
row,Compound,logP
1,NC(Cc1ccccc1)Cc1ccccc1,3.35
2,Nc1ccc(Cl)c(Cl)c1,2.69
3,CCOC(=O)C(=Cc1cccc(OC)c1)C(C)=O,2.34
4,NC(=S)c1ccccn1,1.24
5,CNC(=O)Oc1ccc([N+](=O)[O-])cc1,1.47
6,Nc1ccc(S(=O)(=O)Nc2ccc(S(N)(=O)=O)cc2)cc1,0.35
7,CC(O)CCC(=O)c1ccoc1 (stereo not given),0.84
8,CCCc1nc2cccc(C)n2c(=O)c1CC,2.37
9,CCC(=O)OC1(C(=O)CCl)C(C)CC2C3CCC4=CC(=O)C=CC4(C)C3(Cl)C(O)CC21C (stereo not given),3.28
10,Cc1cccc(N2C(=O)CCC2=O)c1,0.57
11,COC(=O)C(C)(C)C,1.83
12,O=c1ccnc(S)[nH]1,-0.28
13,Cc1ccc2cc(C)ccc2c1,4.31
14,O=C(NC(=O)c1ccccc1O)c1ccccc1,1.38
15,COc1ccc(I)cc1Cc1cnc(N)nc1N,2.7
16,O=S(c1ccccc1)c1ccccc1,2.06
17,ClCBr,1.41
18,Cc1ccccc1OCC(O)CO (stereo not given),1.41
19,Oc1c(Cl)c(Cl)cc(Cl)c1Cl,3.88
20,O=C(O)c1ccc2oc3ccccc3c(=O)c2c1,3.12
21,O=C1CN=C(c2ccccc2)c2cc(F)ccc2N1,2.32
22,CC(C)Oc1ccc([N+](=O)[O-])cc1,2.8
23,NC(Cc1c[nH]c2cccc(F)c12)C(=O)O (stereo not given),-1.07
24,CCCCC(=O)OCC(=O)C1(O)C(C)CC2C3CCC4=CC(=O)C=CC4(C)C3(F)C(O)CC21C (stereo not given),3.87

row,Compound,logP
1,COP(=S)(OC)Oc1ccc(S(=O)(=O)N(C)C)cc1,2.23
2,Fc1cc(F)c(F)c(F)c1F,2.53
3,O=C(O)c1ccc(N=C=S)cc1,3.52
4,O=C(O)COc1ccc(Cl)cc1Cl,2.81
5,NCCCN,-1.43
6,CCN(CC)Cc1cccnc1,1.01
7,CCCCC(CC)COP(=O)(Oc1ccccc1)Oc1ccccc1 (stereo not given),5.73
8,O=[N+]([O-])c1cccnc1,0.6
9,O=C1C=C(N2CC2)C(=O)C(N2CC2)=C1N1CC1,-0.13
10,COC(=O)COc1ccccc1,1.41
11,N#CCN,-1.37
12,Cc1ccc(C(C)C)cc1,4.1
13,COc1ccc(N)cc1Cl,1.85
14,OCC1OC(Oc2ccc(Cl)cc2)C(O)C(O)C1O (stereo not given),0.26
15,COC(=O)c1ccccc1Cl,2.38
16,CC(=O)C(=Cc1ccccc1C)C(C)=O,1.98
17,c1ccc2c(c1)CCC2,3.18
18,COC1C(O)CC(OC2C(O)CC(OC3C(O)CC(OC4CCC5(C)C(CCC6C5CC(OC(C)=O)C5(C)C(C7=CC(=O)OC7)CCC65O)C4)OC3C)OC2C)OC1C (stereo not given),2.87
19,O=S1OCC2C(CO1)C1(Cl)C(Cl)=C(Cl)C2(Cl)C1(Cl)Cl (stereo not given),3.83
20,CCc1ccsc1,2.82
21,CCSCC,1.95
22,CNC(=O)Oc1cccc(C#N)c1,0.97
23,CN(C)CCCc1ccccc1,2.73
24,CC12CCC(=O)C=C1CCC1C2C(O)CC2(C)C1CCC2(O)C(=O)COC1OC(CO)C(O)C(O)C1O (stereo not given),0.15

row,Compound,logP
1,C(=Nc1ccccc1)c1ccccc1,2.82
2,O=C(O)Cc1ccc([N+](=O)[O-])cc1,1.39
3,CCOC(=O)C(Cc1ccccc1)C(=O)OCC,2.76
4,CS(=O)(=O)CC#N,-1.42
5,Brc1cnc2ccccc2c1,3.03
6,O=C1Nc2ccccc2C1=O,0.83
7,COc1cc(Cl)c(Cl)cc1O,3.26
8,CNC(=O)Oc1cccc(C=O)c1,0.92
9,CN(C)C(=O)C=Cc1ccccc1,1.73
10,CCOc1ccc(N)cc1,1.24
11,Clc1cc(Cl)c(Cl)nc1Cl,3.32
12,OCc1ccc(Cl)cc1,1.96
13,O=C(CN1CCCCC1)Nc1ccccc1[N+](=O)[O-],2.75
14,CC(=O)Oc1ccc(C(N)=O)cc1,0.27
15,CON(C)C(=O)Nc1ccc([N+](=O)[O-])cc1,1.74
16,O=C(CCCN1CCN(c2ccccn2)CC1)c1ccc(F)cc1,3.3
17,c1ccc(-n2cccc2)cc1,3.08
18,Fc1cc(F)cc(Cn2cc[nH]c2=S)c1,1.98
19,Cc1nn(-c2ccccc2)c(C)c1N=O,2.28
20,C1CC1,1.72
21,CCOC(=O)C(=Cc1ccccc1OC)C(C)=O,2.39
22,CN(C=O)c1ccccc1,1.09
23,O=C(CN1CCCCC1)Nc1cccc(Br)c1,3.62
24,CN(C)C(=O)OCc1ccc(C(F)(F)F)cc1,3.08

row,Compound,logP
1,O=[N+]([O-])c1cc[n+]([O-])c2ccc(Cl)cc12,1.41
2,O=[N+]([O-])c1nccn1CCO,-0.47
3,O=C(O)c1ccccc1Oc1ccccc1,3.11
4,BrCCc1ccccc1,3.09
5,CNc1nc(NC)nc(SC(F)F)n1,2.31
6,BrC=CBr,1.76
7,BrCCCc1ccccc1,3.72
8,C=C(C)C,2.34
9,Cc1cccnc1,1.2
10,CC1CCCC(C)N1N=O (stereo not given),1.36
11,CN(C)CC=Cc1ccccc1,2.61
12,O=NN(CCCl)C(=O)NC1CCCC1,2.2
13,O=P(Oc1ccccc1)(Oc1ccccc1)Oc1ccccc1,4.59
14,CNc1cnn(-c2cccc(C(F)(F)F)c2)c(=O)c1Cl,2.3
15,Nc1cc(C(F)(F)F)cc(C(F)(F)F)c1,3.57
16,FC(F)(F)c1ccccc1Cl,3.53
17,O=C(O)Cn1nc2ccccc2n1,-1.64
18,CC(C)(C)c1cccc(OCC(=O)O)c1,2.96
19,O=C(O)CCl,0.22
20,CCCCCCCC(C)=O,3.14
21,CC(=O)N[C@@H](CO)C(=O)N[C@@H](Cc1ccccc1)C(N)=O,-0.79
22,O=C(O)C=CC(=O)c1ccccc1,1.53
23,CCCC(C)(C)c1ccc(C2CCCC(O)C2)c(O)c1 (stereo not given),4.82
24,CC(=O)[C@@]1(O)CC[C@H]2[C@@H]3CCC4=CC(=O)CC[C@]4(C)[C@H]3CC[C@@]21C,3.17

row,Compound,logP
1,Cc1cccc(C=C(C(N)=O)C(N)=O)c1,0.4
2,O=[As](O)(O)c1ccccc1,0.06
3,CCOC(=O)C(=Cc1ccccc1[N+](=O)[O-])C(=O)OCC,2.54
4,CCCCCCC(NC(C)=O)C(=O)OC (stereo not given),1.7
5,COc1ccccc1Oc1ccccc1,2.92
6,CN(C)CCOC(=O)c1ccccc1,2.06
7,CSc1cccc(N)c1,1.45
8,CC1(C)S[C@@H]2[C@H](NC(=O)C(C(=O)O)c3ccccc3)C(=O)N2[C@H]1C(=O)O (stereo not given in full),1.13
9,O=C(OC1CCCCC1)n1cc(F)c(=O)[nH]c1=O,1.42
10,CON(C)C(=O)Nc1cccc(O)c1,0.83
11,Cc1ncc([N+](=O)[O-])n1CCCl,0.88
12,Nc1ccc(Cl)c([N+](=O)[O-])c1,2.06
13,Nc1ccccc1,0.9
14,FCCl,0.51
15,N#Cc1ccc(C(O)C(CO)NC(=O)C(Cl)Cl)cc1 (stereo not given),0.78
16,NC(=O)c1ccsc1,0.5
17,O=C(O)COc1ccccc1I,2.33
18,O=P(c1ccccc1)(c1ccccc1)c1ccccc1,2.83
19,C[n+]1cccc2ccccc21.[Br-],-2.64
20,Brc1cccc(Br)c1,3.75
21,NCCc1ccccn1,0.08
22,Cc1ccc(S(I)=C(N(C)C)N(C)C)c([N+](=O)[O-])c1 (stereo not given),0.23
23,c1ccc(C2CNCCO2)cc1 (stereo not given),1.11
24,CCOP(=S)(OCC)SCn1c(=O)oc2cc(Cl)ccc21,4.38
